# Measurements as given in PubChem BioAssay (NCI).
# Several values for one entry are separate records, joined by “and”; a condition that tells them apart may be missing. Equal values may be shown once.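 Values below derive from 48-hour exposures of cells grown in 96-well plates, with endpoints linearly interpolated between the two concentrations bracketing the appropriate inhibition level. The concentration for 50% growth inhibition is given as GI50. TGI: concentration producing complete growth inhibition.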
# What was measured:
# Assay in all cases: NCI anticancer screen, dose series, 48 h
# SK-MEL-28 melanoma = system: SK-MEL-28 melanoma
# HT29 colon = system: HT29 colon
# K-562 leukemia = system: K-562 leukemia
# MCF7 breast = system: MCF7 breast
# SN12C renal = system: SN12C renal
# HS 578T breast = system: HS 578T breast
# SF-295 CNS = system: SF-295 CNS
# UACC-257 melanoma = system: UACC-257 melanoma
# HCC-2998 colon = system: HCC-2998 colon
# T-47D breast = system: T-47D breast
SMILES,GI50 (SK-MEL-28 melanoma) [µM],TGI (SK-MEL-28 melanoma),GI50 (HT29 colon) [µM],TGI (HT29 colon),GI50 (K-562 leukemia) [µM],TGI (K-562 leukemia),GI50 (MCF7 breast) [µM],TGI (MCF7 breast) [µM],GI50 (SN12C renal) [µM],TGI (SN12C renal),GI50 (HS 578T breast) [µM],TGI (HS 578T breast) [µM],GI50 (SF-295 CNS) [µM],TGI (SF-295 CNS),GI50 (UACC-257 melanoma) [µM],TGI (UACC-257 melanoma),GI50 (HCC-2998 colon) [µM],TGI (HCC-2998 colon),GI50 (T-47D breast) [µM],TGI (T-47D breast) [µM]
Cn1cncc1[C@@](N)(c1ccc(Cl)cc1)c1ccc2c(c1)c(-c1cccc(Cl)c1)cc(=O)n2C,2.8,14.7 µM,1.27,6.24 µM,0.669,6.16 µM,1.55,13.5,2.48,14.9 µM,2.77,15.5,0.534,6.35 µM,1.37,12.4 µM,1.79,7.08 µM,2.57,17.2
O=C1CC(c2ccc(N3CCOCC3)cc2)(c2ccsc2)NC(=O)C1Sc1ccccc1Cl (centres undefined),38.4,> 100 µM,46.4,> 100 µM,4.69,> 100 µM,57.2,> 100,10.1,> 100 µM,3.66,> 100,67,> 100 µM,> 100,> 100 µM,> 100,> 100 µM,85.9,> 100
CCC(C)(C)C(=O)O[C@H]1C[C@@H](C)C=C2C=C[C@H](C)[C@H](CC[C@@H]3C[C@@H](O)CC(=O)O3)[C@H]21,5.05,18.8 µM and > 30 µM,–,20.2 µM and 21.3 µM,5.53,22.8 µM and > 30 µM,12.2,26.7,0.949,16.5 µM and > 30 µM,2.7,16.4,0.434,8.03 µM and 2.61 µM,10.8,25 µM and > 30 µM,7.89,22.1 µM and > 30 µM,11.9,28.2
CC(C)(C)NC(C1=CC(C)(C)c2ccccc2C1=O)c1ccccc1 (centres undefined),1.6,2.95 µM,1.54,2.88 µM,1.67,3.86 µM,1.32,2.59,1.61,3.57 µM,1.43,6.08,5.07,17.8 µM,1.42,2.94 µM,1.66,3.1 µM,1.12,2.55
COc1cc2c3c(n(CCCCOC(=O)C(F)(F)F)c(=O)c2cc1OC)-c1cc2c(cc1C3=O)OCO2,> 100,> 100 µM,> 100,> 100 µM,> 50.4,> 100 µM,> 48.8,> 100,> 93.9,> 100 µM,> 93.1,> 100,> 41.7,> 100 µM,> 100,> 100 µM,> 100,> 100 µM,> 100,> 100
CCCN(CCC)C(=O)C1=Cc2ccc(-c3ccc(C(=O)N4CCCC4)cc3)cc2N=C(N)C1,8.91,24.8 µM,4.28,28.6 µM,4.45,26.9 µM,3.32,15.3,18.4,60 µM,16,59,4.92,24.5 µM,9.03,22.3 µM,14.4,35.8 µM,3.56,26.8
